Where two headings read alike, the source gives them in different places.
Columns and labels:
[1] = tested on: cisplatin-resistant human ovarian cancer cell line A2780cis; experiment: MTT antiproliferative assay, A2780cis; type: cell-based; details: 72 h, 100–0.19 μM, read-out: IC50 (µM) ± SD A2780cis
Experimental: (§1) Breast cancer cell line MCF-7 (ATCC® HTB-22) and the drug-resistant subline of the human breast cancer MCF-7 (ECACC 86012803; KCR) were purchased from LGC Promochem (Teddington, UK). Both cell lines were cultured in Eagle’s Minimal Essential Medium (EMEM, containing 4.5 g/L glucose) supplemented with a non-essential amino acid mixture, a selection of vitamins, and 10% heat-inactivated fetal bovine serum. In every third passage, 0.56 µg/mL doxorubicin was added to the medium, in order to maintain the ABCB1 (P-glycoprotein) expression in KCR cells. A2780 human ovarian cancer cell line (ECACC, European Collection of Authentical Cell Culture, Sigma Cat.no. 93112519) was purchased from Merck KGaA (Darmstadt, Germany). The cisplatin-resistant human ovarian cancer cell line A2780cis (ECACC European Collection of Authentical Cell Culture, Sigma Cat.no. 93112517) was purchased from Merck KGaA (Darmstadt, Germany). The human ovarian cancer cell lines were cultured in RPMI 1640 medium supplemented with 10% heat-inactivated fetal bovine serum. […] HeLa (ATCC® CCL-2™) human cervix carcinoma cell line was purchased from LGC Promochem (Teddington, UK). The cells were cultured in Eagle’s Minimal Essential Medium (EMEM, containing 4.5 g/L glucose) supplemented with a non-essential amino acid mixture, a selection of vitamins, and 10% heat-inactivated fetal bovine serum. MRC-5 human embryonal lung fibroblast cell line (ATCC® CCL-171) was purchased from LGC Promochem, Teddington, UK. The cell line was cultured in Eagle’s Minimal Essential Medium (EMEM, containing 4.5 g/L glucose) supplemented with a non-essential amino acid mixture, a selection of vitamins, and 10% heat-inactivated fetal bovine serum. HTB-26 breast adenocarcinoma cell line was purchased from LGC Promochem, Teddington, UK. The cell line was cultured in RPMI 1640 medium supplemented with 10% heat-inactivated fetal bovine serum. T-47D (ATCC® HTB-133™) ductal carcinoma cell line was purchased from LGC Promochem, Teddington, UK. The cells were cultured in RPMI 1640 medium supplemented with 10% heat-inactivated fetal bovine serum, 2 mM L-glutamine, 1 mM Na-pyruvate, and 100 mM Hepes. All of the cells were incubated at 37 °C, in a 5% CO2 and 95% air atmosphere.
(§2) The antiproliferative effect of the compounds was determined on human breast (MCF-7, KCR, T47D, and HTB-26), cervical (HeLa), and ovarian (A2780 and A2780cis) cancer cells, and on MRC-5 (human embryonic lung fibroblast) cell lines. The adherent cells were cultured in 96-well flat-bottomed microtiter plates, using EMEM supplemented with 10% heat-inactivated fetal bovine serum or RPMI 1640 supplemented with 10% heat-inactivated fetal bovine serum, respectively. The density of the cells was adjusted to 6 × 10^3 cells in 100 μL per well, the cells were seeded for 24 h at 37 °C, with 5% CO2, and then the medium was removed from the plates, and fresh medium (100 μL per well) was added to the cells. The effects of increasing concentrations of compounds on cell proliferation were tested in 96-well flat-bottomed microtiter plates. The compounds were diluted in the appropriate medium; the dilutions of compounds were performed in separate plates and then added to the cells. The starting concentration of the compounds was 100 μM, and two-fold serial dilution was performed (concentration range: 100–0.19 μM). The culture plates were incubated at 37 °C for 72 h; at the end of the incubation period, 20 μL of MTT (thiazolyl blue tetrazolium bromide, Sigma) solution (from a stock solution of 5 mg/mL) was added to each well. After incubation at 37 °C for 4 h, 100 μL of sodium dodecyl sulfate (SDS) (Sigma) solution (10% in 0.01 M HCI) was added to each well, and the plates were further incubated, at 37 °C, overnight. Cell growth was determined by measuring the optical density (OD) at 540/630 nm, with a Multiscan EX ELISA reader (Thermo Labsystems, Cheshire, WA, USA). […]

[2] = tested on: T-47D ductal carcinoma cell line; experiment: MTT antiproliferative assay, T47D; type: cell-based, human; details: 72 h, 100–0.19 μM, read-out: IC50 (µM) ± SD T47D
Experimental: as §1, §2

[3] = tested on: KCR, drug-resistant subline of the human breast cancer MCF-7; experiment: MTT antiproliferative assay, KCR; type: cell-based; details: 100–0.19 μM, read-out: IC50 (µM) ± SD KCR
Experimental: as §1, §2

[4] = tested on: A2780 human ovarian cancer cell line; experiment: MTT antiproliferative assay, A2780; type: cell-based; details: 100–0.19 μM, read-out: IC50 (µM) ± SD A2780
Experimental: as §1, §2

[5] = tested on: HeLa human cervix carcinoma cell line; experiment: MTT antiproliferative assay, HeLa; type: cell-based; details: 72 h, 100–0.19 μM, read-out: IC50 (µM) ± SD HeLa
Experimental: as §1, §2

[6] = tested on: HTB-26 breast adenocarcinoma cell line; experiment: MTT antiproliferative assay, HTB-26; type: cell-based, human; details: 100–0.19 μM, read-out: IC50 (µM) ± SD HTB-26
Experimental: as §1, §2

[7] = tested on: Breast cancer cell line MCF-7; experiment: MTT antiproliferative assay, MCF-7; type: cell-based, human; details: for IC50: MTT assay, 72 h, 100–0.19 μM, read-out: IC50 (µM) ± SD MCF-7
Experimental: as §1, §2

[8] = tested on: G2/M and subG1 cell cycle phase; parameters: method as in PMID 31005716; details: even at lower concentrations; cited from earlier work
[9] = tested on: normal skin fibroblasts CCD966SK; parameters: method as in PMID 31005716; details: even at higher concentrations; cited from earlier work
[10] = tested on: tubulin; parameters: method as in PMID 31005716; details: at 200 µM; cited from earlier work
[11] = tested on: HeLa cells; parameters: method as in PMID 30127296, PMID 31005716; details: previously described, read-out: IC50, antiproliferative activity on HeLa cells; cited from earlier work
[12] = tested on: caspase-3; parameters: method as in PMID 31005716; details: cited from earlier work

| IC50 ([1]; Homo sapiens, A2780cis) [µM] | IC50 ([2]; Homo sapiens, T47D) [µM] | IC50 ([3]; Homo sapiens, MCF7, 72 h) [µM] | IC50 ([4]; Homo sapiens, A2780, 72 h) [µM] | IC50 ([5]; Homo sapiens, HeLa) [µM] | IC50 ([6]; Homo sapiens, HTB26, 72 h) [µM] | IC50 ([7]; Homo sapiens, MCF7, 72 h) [µM] | IC50 [1] [µM] | IC50 [2] [µM] | IC50 ([3]; 72 h) [µM] | IC50 ([4]; 72 h) [µM] | IC50 [5] [µM] | IC50 ([6]; 72 h) [µM] | IC50 [7] [µM] | Compound | selectivity against MCF-7 cells over non-tumoral MRC-5 cells ([7]; ratio of IC50 MRC-5 / MCF-7) | number of cells in the G2/M and subG1 cell cycle phase [8] | toxicity on normal skin fibroblasts CCD966SK [9] | tubulin polymerization [10] | IC50 [11] [µM] | caspase-3 activity [12] |
| --- | --- | --- | --- | --- | --- | --- | --- | --- | --- | --- | --- | --- | --- | --- | --- | --- | --- | --- | --- | --- |
|  |  |  |  |  |  |  | 22.1 ± 1.6 | 14.2 ± 0.6 | 29.4 ± 0.9 | 22 ± 2 | 35 ± 1.5 | 20.1 ± 1.1 | 10.2 ± 0.1 | C=CC1=CC(=O)C=C2CCC3=C(C=CC(=O)C3(C)OCC)C12OCC (stereo not shown) [Compound 4b] |  |  |  |  |  |  |
| 88.2 ± 3.1 | 36.5 ± 1 | > 100 | 80.3 ± 3 | > 100 | 74.3 ± 3.6 | 52.1 ± 4.8 |  |  |  |  |  |  |  | C=CC1=C(C)C(=O)C=C2CCC3=C(C=CC(=O)C3(C)OC)C21OC (stereo not shown) [Compound 1b] |  |  |  |  |  |  |
| 62.9 ± 1.7 | 56.3 ± 3.4 |  | 66 ± 4.4 | 94.7 ± 3.4 |  | 80.5 ± 3.5 |  |  | > 100 |  |  | 94.3 ± 2 |  | C=CC1=C(C)C(=O)C=C2CCC3=C(C=CC(=O)C3(C)OCC)C21OCC (stereo not shown) [Compound 2a] |  |  |  |  |  |  |
|  |  |  |  |  |  |  | 38 ± 4.6 | 30.3 ± 2.5 | 44.2 ± 2.6 | 39.4 ± 3.1 | 61.9 ± 0.3 | 45.8 ± 3.2 | 41 ± 0.9 | C=CC1=C(C)C(=O)C=C2CCC3=C(C=CC(=O)C3(C)OCC)C21OCC (stereo not shown) [Compound 2b] |  |  |  |  |  |  |
| 22.5 ± 0.2 | 11.6 ± 0.3 | 23.5 ± 0.8 | 25.2 ± 1.8 | 24.4 ± 0.8 | 16.1 ± 0.2 | 11.7 ± 0.7 |  |  |  |  |  |  |  | C=CC1=CC(=O)C=C2CCC3=C(C=CC(=O)C3(C)OCC)C12OCC (stereo not shown) [Compound 4a] |  |  |  |  |  |  |

Continued, molecule first:

| Compound | IC50 ([1]; Homo sapiens, A2780cis) [µM] | IC50 ([2]; Homo sapiens, T47D) [µM] | IC50 ([3]; Homo sapiens, MCF7, 72 h) [µM] | IC50 ([4]; Homo sapiens, A2780, 72 h) [µM] | IC50 ([5]; Homo sapiens, HeLa) [µM] | IC50 ([6]; Homo sapiens, HTB26, 72 h) [µM] | IC50 ([7]; Homo sapiens, MCF7, 72 h) [µM] | IC50 [1] [µM] | IC50 [2] [µM] | IC50 ([3]; 72 h) [µM] | IC50 ([4]; 72 h) [µM] | IC50 [5] [µM] | IC50 ([6]; 72 h) [µM] | IC50 [7] [µM] | selectivity against MCF-7 cells over non-tumoral MRC-5 cells ([7]; ratio of IC50 MRC-5 / MCF-7) | number of cells in the G2/M and subG1 cell cycle phase [8] | toxicity on normal skin fibroblasts CCD966SK [9] | tubulin polymerization [10] | IC50 [11] [µM] | caspase-3 activity [12] |
| --- | --- | --- | --- | --- | --- | --- | --- | --- | --- | --- | --- | --- | --- | --- | --- | --- | --- | --- | --- | --- |
| C=CC1=CC(=O)C=C2CCC3=C(C=CC(=O)C3(C)OC)C12OC (stereo not shown) [Compound 3] | 10.9 ± 2.2 | 7 ± 1 | 18.9 ± 1.4 | 8.6 ± 0.5 | 12.9 ± 0.4 | 10.9 ± 0.9 | 5.8 ± 0.2 |  |  |  |  |  |  |  | ca. 2.1 fold |  |  |  |  |  |
| C=Cc1c(C)c(O)cc2c1-c1ccc(O)c(C)c1CC2 [juncusol] | 37.1 ± 2.8 | 25 ± 0.4 | 35.8 ± 1.7 | 23.8 ± 1.3 | 0.5 | 41.7 ± 3.5 | 37.1 ± 1.1 |  |  |  |  |  |  |  |  | increased | nontoxic | decreased | 0.95 | significant and concentration-dependent increase |
| C=Cc1cc(O)cc2c1-c1ccc(O)c(C)c1CC2 [effusol] | 30.4 ± 0.4 | 24.6 ± 1.9 | 39.3 ± 1.6 | 33.1 ± 3.1 | 2.3 ± 0.7 | 57 ± 2.7 | 48.6 ± 3.4 |  |  |  |  |  |  |  |  |  |  |  | 3.68 |  |
| N.N.[Cl][Pt][Cl] [Cisplatin, cisplatin, reference compound] |  |  |  |  |  |  |  | 7.3 ± 0.2 | 5.9 ± 0.1 | 6.7 ± 0.4 | 3.6 ± 0.3 | 2.3 ± 0.1 | 20.1 ± 2.3 | 1.4 ± 1.1 |  |  |  |  |  |  |

— PMC7765930, “Antiproliferative Phenanthrenes from Juncus tenuis: Isolation and Diversity-Oriented Semisynthetic Modification” (Molecules, 2020)
